For data set [1], the system named is b.End3 cells. Put plainly: Hyperglycaemia-induced mitochondrial dysfunction: mitochondrial membrane potential restore. The settings on record: compound added on day 8 for two days. It is filed as cell-based. How it is done:
Moreover, in cardiovascular diseases such as hypertension and diabetes a loss of endothelial function and cell death were observed [Poredos et al, 2021].
In order to induce hyperglycemia in b.End3 cells, a literature reported protocol Lorenzi et al 1985; Qu et al 2014] was followed. After trypsinisation, cells were diluted with supplemented DMEM (approximately 2 ml per flask) and consequently, cells from 3 or 4 different flasks were transferred in a 15 ml sterile conical centrifuge tube and centrifuged for 5 minutes, in order to separate the cells from the medium. Following that, the supernatant medium was removed and the cells were gently re-suspended and mixed with approximately 4 ml of fresh supplemented DMEM. 20 μl of this solution was added to 40 μl of trypan blue and 10 μl of the final solution was loaded onto a cell counting slide dual-chamber. Trypan blue allows to distinguish between live and dead cells. Indeed it is impermeable in live cells, while it is absorbed by dead cells. The number of cells per ml was measured using an automated cell counter. Commonly, the value found was […] and consequently, the cell solution was diluted, in order to obtain a concentration of 20,000 cells/well in the minimum volume necessary to fill a 96-well plate (200 μl/well, ≈13 ml for one plate, since the two external columns and rows were loaded with cell-free medium because they are susceptible to evaporation thus, the cell medium in these wells prevented the external cell-containing wells from evaporating). Cells were cultured overnight in a humidified incubator, in order to allow them to attach to the plate surface. Afterwards, the medium was removed (a part of the plate was kept with normal glucose DMEM as a […]) and supplemented high-glucose DMEM was added. Cells were cultured for 8 days since, in previous studies, it was determined that this is the minimum amount of time required to induce extensive mitochondrial dysfunction, such as excessive oxidant production and mitochondrial membrane hyperpolarisation Lorenzi et al 1985; Qu et al 2014]
On day 8, 10 μl/well (1/20 dilution factor) of a solution of an H2S donor or of a control compound or a PBS vehicle solution (with calcium and magnesium salts and 10% DMSO) was administered to cells. The final concentration of DMSO in cells was 0.5%: higher DMSO doses may be toxic for the cells. The cells were incubated for a further two days in the presence of the compound and after ten days of hyperglycaemia exposure, the amount of mitochondrial oxidant and mitochondrial membrane hyperpolarisation were determined. Noticeably in this procedure, in order to evaluate the cytoprotective activity of the novel compounds, the drugs were added only after the mitochondrial dysfunction in cells had already occurred. The protocol described is summarised in the scheme below:
On day 0, cells (20,000 cell/ml) were plated in a 96-well plate. Cells were cultured overnight at 37° C. On day 1, supplemented DMEM was removed and high-glucose supplemented DMEM was added. On day 8, an H2S donor compound (Examples 1-7), a control compound or altematively a vehicle solution was added to cells. On day 10, mitochondrial dysfunction were determined Lorenzi et al 1985; Qu et al 2014].

Data set [2] concerns b.End3 cells. Put plainly: Hyperglycaemia-induced mitochondrial dysfunction: mitochondrial superoxide (ROS) production, Mitosox Red. It is filed as cell-based. The settings on record: 10 days hyperglycaemia, compound added on day 8 for two days. The method, then: In order to induce hyperglycemia in b.End3 cells, a literature reported protocol Lorenzi et al 1985; Qu et al 2014] was followed. After trypsinisation, cells were diluted with supplemented DMEM (approximately 2 ml per flask) and consequently, cells from 3 or 4 different flasks were transferred in a 15 ml sterile conical centrifuge tube and centrifuged for 5 minutes, in order to separate the cells from the medium. Following that, the supernatant medium was removed and the cells were gently re-suspended and mixed with approximately 4 ml of fresh supplemented DMEM. 20 μl of this solution was added to 40 μl of trypan blue and 10 μl of the final solution was loaded onto a cell counting slide dual-chamber. Trypan blue allows to distinguish between live and dead cells. Indeed it is impermeable in live cells, while it is absorbed by dead cells. The number of cells per ml was measured using an automated cell counter. […] Cells were cultured for 8 days since, in previous studies, it was determined that this is the minimum amount of time required to induce extensive mitochondrial dysfunction, such as excessive oxidant production and mitochondrial membrane hyperpolarisation Lorenzi et al 1985; Qu et al 2014]
On day 8, 10 μl/well (1/20 dilution factor) of a solution of an H2S donor or of a control compound or a PBS vehicle solution (with calcium and magnesium salts and 10% DMSO) was administered to cells. […] The cells were incubated for a further two days in the presence of the compound and after ten days of hyperglycaemia exposure, the amount of mitochondrial oxidant and mitochondrial membrane hyperpolarisation were determined. […]
On day 0, cells (20,000 cell/ml) were plated in a 96-well plate. […] On day 10, mitochondrial dysfunction were determined Lorenzi et al 1985; Qu et al 2014]. […]

The subject of data set [3] is b.End3 cells. Put plainly: Toxicity (TC50). It is filed as cell-based.
A further data set concerns C. elegans. The experiment in a line: Worm screening: mitochondrial network imaging in ageing C. elegans. It is filed as in vivo. The settings on record: for reduction of networked mitochondria caused by aging: FIG. 2; for damage caused to mitochondrial network in aging: FIG. 3. How it is done: C. elegans strains were cultured at 20° C. on Petri dishes containing nematode growth medium (NGM) agar and a lawn of Escherichia coli OP50, unless stated otherwise. Animals for the study were age-synchronized by gravity synchronization from the L1 stage and allowed to grow to the desired day of adulthood. The C. elegans strains used in this study were Bristol strain N2 (WT) provided by the Caenorhabditis Genetics Center.
Mitochondrial imaging was used in day 1 adults, with or without treatment, to examine the mitochondrial network. Worms were cultured on test compounds as described. Approximately 20 day 1 adults were picked into 20 μL of M9 buffer on a microscope slide with a coverslip applied. Worms were imaged at 40× magnification using a Nikon Eclipse 50i microscope. The protocol used was as described by Oh and Kim. Briefly animals were assessed at day 4 and day 8 of adulthood, where the number of dead muscle cells was determined by quantifying the number of muscle cells that had lost their distinct circular nuclear GFP signal. Approximately 30 animals were picked into 20 μL of M9 buffer on a microscope slide with a coverslip applied. Worms were imaged at 10× magnification by using a Nikon Eclipse 50i microscope.

The conditions of data set [4]: cited from earlier work.
In another data set the test system is endothelial cells. To be noted: cited from earlier work.
The nature of a further data set: Toxicity (TC50). The settings on record: mouse, b.End3 cells. It is filed as cell-based.
Data set [5] has as its system senescent primary human lung fibroblasts. Put plainly: Cellular bioenergetics (Seahorse OCR) in senescent primary human lung fibroblasts. It is filed as cell-based. To be noted: FIG. 4; compounds 0-300 nM; compared to the control (SIP cells without compound). The method, then:
Human primary lung fibroblasts were isolated from healthy volunteers and cultured in DMEM supplemented with 10% fetal calf serum and 1% pen/strep and […] L-glutamine, at 37° C., 5% CO2. To induce senescence, cells were seeded at a density of 50,000 cells per well in 250 μl of cell culture media onto Seahorse V7 plates and treated daily with fresh cell culture media containing […] H2O2 for 5 days, cells were then cultured with normal medium for a further 9 days. Senescence was confirmed by microscopy and staining for the senescence marker, senescence-associated-β-galactosidase (SA-βgal; Cell Signalling kit #9860). Cells were then treated with compounds (0-300 nM) for a further 24 h (controls are *SIP cells without compounds) and after this time, cellular bioenergetics determined using a Seahorse XFe24 extracellular flux analyser performed as described below. * SIP-senescence-induced phenotype
For the mitochondrial stress and glycolytic stress tests (Agilent, UK)Seahorse XFe24 sensor cartridges were hydrated with Seahorse XF calibrant solution and maintained at 37° C. in a non-CO2 incubator overnight. […] After incubation, plates were loaded onto Seahorse XFe24 Analyser and basal oxygen consumption rate (OCR) measured for 3 cycles. […] Extracellular acidification rate (ECAR) and Oxygen consumption rate (OCR) were measured for 3 baseline cycles and injection strategy initiated. […]

These results are taken from patent publication US20240400536A1, “IDEBENONE DERIVATIVES AND THEIR USE IN TREATING PLANTS” (MITORX THERAPEUTICS LIMITED, priority 2021, published 2024).

Usually IC50 stands for the concentration that gives 50% inhibition. A lower IC50 goes with greater potency in that assay. The term CC50 denotes the concentration at which the toxic effect on the cells reaches its halfway point. A lower CC50 goes with greater toxicity to the cells.

For the compound “4-(3-sulfanylidene-3H-1,2- dithiol-5-yl)phenyl) 10-(4,5-dimethoxy-2- methyl-2,6-dioxocyclohexa- 1,4-dien-1-yl)decanoate [Example 2]”, the IC50 in the data set on b.End3 cells [1] (10 days hyperglycaemia) was determined as 6 nM. Besides, the “IC25 (Mitochondrial ROS level restore)” value in the data set with b.End3 cells [2] came to 10 nM. This compound also gave a CC50 in the data set on b.End3 cells [3] of 130000 nM. The “fragmentation of the mitochondrial network caused by ageing” value in the data set with C. elegans (FIG. 1) is recorded as “inhibited”. In the data set with C. elegans, the “reduction of networked mitochondria caused by aging” value (“reduction” below) is “preserved” and the “damage caused to mitochondrial network in aging” value (“damage caused” for short) was “can be inhibited”.
As to `Oc1ccc(-c2cc(=S)ss2)cc1` [ADTOH, 5-(4-hydroxyphenyl) -3H-1,2-dithiole-3-thione], in the data set with C. elegans, the “reduction” value is recorded as “not” and the “damage caused” value was “not”.
For `O=C(CCCCCCCCC[P+](c1ccccc1)(c1ccccc1)c1ccccc1)Oc1ccc(-c2cc(=S)ss2)cc1.[Br-]` [AP39], the midpoint of inhibition with b.End3 cells [1] (10 days hyperglycaemia), the IC50, lay at 4 nM. In addition, the “IC25 (Mitochondrial ROS level restore)” value with b.End3 cells [2] is 10 nM. Also, the CC50 in the data set on b.End3 cells [3] was 8000 nM. In data set [4], the aqueous solubility entry is “poor”. Besides, the ATP production result with endothelial cells (endothelial cells) is “increase”. Further, the protein persulfidation result with endothelial cells (inside the mitochondria) is “increase”. In the data set with endothelial cells (mainly inside the mitochondria, concentration-dependent), the “intracellular levels of H2S” value was “increase”.
As to `COC1=C(OC)C(=O)C(CCCCCCCCCCOC(=O)COc2ccc(-c3cc(=S)ss3)cc2)=C(C)C1=O` [Example 1, 10-(4,5-dimethoxy-2-methyl-3,6-dioxocyclohexa-1,4-dien-1-yl)decyl 2-[4-(3-sulfanylidene-3H-1,2-dithiol-5-yl)phenoxy]acetate], half-maximal inhibition in the data set on b.End3 cells [1] (BEND3, 10 days hyperglycaemia) (IC50) required 0.4 nM. Besides, the “IC25 (Mitochondrial ROS level restore)” value with b.End3 cells [2] is 6.5 nM. In the data set “Toxicity (TC50)”, this compound returned a CC50 of 147000 nM.
For the compound `COC1=C(OC)C(=O)C(CCCCCCCCCC(=O)Oc2ccc(-c3cc(=O)ss3)cc2)=C(C)C1=O` [Example 3, 4-(3-oxo-3H-1,2-dithiol-5-yl)phenyl 10-(4,5-dimethoxy-2-methyl-3,6-dioxocyclohexa-1,4-dien-1-yl)decanonate], the IC50 with b.End3 cells [1] (BEND3, 10 days hyperglycaemia) came to 5 nM. Besides, the CC50 in “Toxicity (TC50)” worked out at 76000 nM.
Regarding `COC1=C(OC)C(=O)C(CCCCCCCCCC(=O)Oc2ccc(C(N)=S)cc2)=C(C)C1=O` [Example 4, 4-carbamothioylphenyl 10-(4,5-dimethoxy-2-methyl-3,6-dioxocyclohexa-1,4-dien-1-yl)decanoate], in the data set on b.End3 cells [1] (BEND3, 10 days hyperglycaemia), the IC50 came to 1 nM. For the same compound, in the data set “Toxicity (TC50)”, the CC50 was 100000 nM.
With `CC1=C(CCCCCCCCCC(=O)Nc2ccc(C(N)=S)cc2)C(=O)c2ccccc2C1=O` [Example 17, N-(4-carbamothioylphenyl)-10-(3-methyl-1,4-dioxo-1,4-dihydronaphthalen-2-yl)decanamide], in data set [5], the “dysfunction of the mitochondria (loss of OCR) in senescent cells” value is reported as “reversed”.
As to `COC1=C(OC)C(=O)C(CCCCCCCCCCO)=C(C)C1=O` [idebenone], in the data set on C. elegans, the “reduction” value was “not” and the “damage caused” value is “not”.
